Test system: plants
Assay: Test D pre-emergence, other plants of Tables D1 and D3
Format: in vivo
Conditions: preemergent, 20 DAA
Procedure, shortened: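 Damage was rated visually from 0 (none) to 100 (total), at 20 DAA for pre-emergence and 15 d for post-emergence. Plants grew from safener-treated seed in a glasshouse at 24/18° C. or 20/16° C. day/night, 65% humidity, watered twice daily.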

CN1CC(c2cc(C(F)(F)F)n(C)n2)C(C(=O)Nc2ccc(F)c(F)c2F)C1=O (racemic) [Compound 17]
damage to plant (100=total damage to plant; 0=no damage to plant), ABUTH (rate 15): 0 | damage to plant (100=total damage to plant; 0=no damage to plant), ABUTH (rate 30): 0 | damage to plant (100=total damage to plant; 0=no damage to plant), ABUTH (rate 60): 0 | damage to plant (100=total damage to plant; 0=no damage to plant), ABUTH (rate 130): 0 | damage to plant (100=total damage to plant; 0=no damage to plant), ABUTH (rate 250): 0 | damage to plant (100=total damage to plant; 0=no damage to plant), ABUTH (rate 500): 10 | damage to plant (100=total damage to plant; 0=no damage to plant), AMARE (rate 15): 0 | damage to plant (100=total damage to plant; 0=no damage to plant), AMARE (rate 30): 0 | damage to plant (100=total damage to plant; 0=no damage to plant), AMARE (rate 60): 0 | damage to plant (100=total damage to plant; 0=no damage to plant), AMARE (rate 130): 0 | damage to plant (100=total damage to plant; 0=no damage to plant), AMARE (rate 250): 0 | damage to plant (100=total damage to plant; 0=no damage to plant), AMARE (rate 500): 0 | damage to plant (100=total damage to plant; 0=no damage to plant), BIDPI (rate 15): 0 | damage to plant (100=total damage to plant; 0=no damage to plant), BIDPI (rate 30): 0 | damage to plant (100=total damage to plant; 0=no damage to plant), BIDPI (rate 60): 0 | damage to plant (100=total damage to plant; 0=no damage to plant), BIDPI (rate 130): 0 | damage to plant (100=total damage to plant; 0=no damage to plant), BIDPI (rate 250): 0 | damage to plant (100=total damage to plant; 0=no damage to plant), BIDPI (rate 500): 0 | damage to plant (100=total damage to plant; 0=no damage to plant), BRAPL (rate 15): 20 | damage to plant (100=total damage to plant; 0=no damage to plant), BRAPL (rate 30): 60 | damage to plant (100=total damage to plant; 0=no damage to plant), BRAPL (rate 60): 80 | damage to plant (100=total damage to plant; 0=no damage to plant), BRAPL (rate 130): 80 | damage to plant (100=total damage to plant; 0=no damage to plant), BRAPL (rate 250): 80 | damage to plant (100=total damage to plant; 0=no damage to plant), BRAPL (rate 500): 90 | damage to plant (100=total damage to plant; 0=no damage to plant), CYPES (rate 15): 0 | damage to plant (100=total damage to plant; 0=no damage to plant), CYPES (rate 30): 0 | damage to plant (100=total damage to plant; 0=no damage to plant), CYPES (rate 60): 0 | damage to plant (100=total damage to plant; 0=no damage to plant), CYPES (rate 130): 0 | damage to plant (100=total damage to plant; 0=no damage to plant), CYPES (rate 250): 0 | damage to plant (100=total damage to plant; 0=no damage to plant), CYPES (rate 500): 0 | damage to plant (100=total damage to plant; 0=no damage to plant), DIGSA (rate 15): 30 | damage to plant (100=total damage to plant; 0=no damage to plant), DIGSA (rate 30): 90 | damage to plant (100=total damage to plant; 0=no damage to plant), DIGSA (rate 60): 90 | damage to plant (100=total damage to plant; 0=no damage to plant), DIGSA (rate 130): 90 | damage to plant (100=total damage to plant; 0=no damage to plant), DIGSA (rate 250): 90 | damage to plant (100=total damage to plant; 0=no damage to plant), DIGSA (rate 500): 90 | damage to plant (100=total damage to plant; 0=no damage to plant), ECHCG (rate 15): 0 | damage to plant (100=total damage to plant; 0=no damage to plant), ECHCG (rate 30): 90 | damage to plant (100=total damage to plant; 0=no damage to plant), ECHCG (rate 60): 90 | damage to plant (100=total damage to plant; 0=no damage to plant), ECHCG (rate 130): 90 | damage to plant (100=total damage to plant; 0=no damage to plant), ECHCG (rate 250): 100 | damage to plant (100=total damage to plant; 0=no damage to plant), ECHCG (rate 500): 100 | damage to plant (100=total damage to plant; 0=no damage to plant), ELEIN (rate 15): 0 | damage to plant (100=total damage to plant; 0=no damage to plant), ELEIN (rate 30): 0 | damage to plant (100=total damage to plant; 0=no damage to plant), ELEIN (rate 60): 0 | damage to plant (100=total damage to plant; 0=no damage to plant), ELEIN (rate 130): 0 | damage to plant (100=total damage to plant; 0=no damage to plant), ELEIN (rate 250): 0 | damage to plant (100=total damage to plant; 0=no damage to plant), ELEIN (rate 500): 0 | damage to plant (100=total damage to plant; 0=no damage to plant), EPHHL (rate 15): 0 | damage to plant (100=total damage to plant; 0=no damage to plant), EPHHL (rate 30): 0 | damage to plant (100=total damage to plant; 0=no damage to plant), EPHHL (rate 60): 0 | damage to plant (100=total damage to plant; 0=no damage to plant), EPHHL (rate 130): 0 | damage to plant (100=total damage to plant; 0=no damage to plant), EPHHL (rate 250): 0 | damage to plant (100=total damage to plant; 0=no damage to plant), EPHHL (rate 500): 10 | damage to plant (100=total damage to plant; 0=no damage to plant), GLXMA (rate 15): 0 | damage to plant (100=total damage to plant; 0=no damage to plant), GLXMA (rate 30): 0 | damage to plant (100=total damage to plant; 0=no damage to plant), GLXMA (rate 60): 0 | damage to plant (100=total damage to plant; 0=no damage to plant), GLXMA (rate 130): 0 | damage to plant (100=total damage to plant; 0=no damage to plant), GLXMA (rate 250): 0 | damage to plant (100=total damage to plant; 0=no damage to plant), GLXMA (rate 500): 0 | damage to plant (100=total damage to plant; 0=no damage to plant), IPOHE (rate 15): 0 | damage to plant (100=total damage to plant; 0=no damage to plant), IPOHE (rate 30): 0 | damage to plant (100=total damage to plant; 0=no damage to plant), IPOHE (rate 60): 0 | damage to plant (100=total damage to plant; 0=no damage to plant), IPOHE (rate 130): 0 | damage to plant (100=total damage to plant; 0=no damage to plant), IPOHE (rate 250): 0 | damage to plant (100=total damage to plant; 0=no damage to plant), IPOHE (rate 500): 0 | damage to plant (100=total damage to plant; 0=no damage to plant), ORYSA (rate 15): 0 | damage to plant (100=total damage to plant; 0=no damage to plant), ORYSA (rate 30): 0 | damage to plant (100=total damage to plant; 0=no damage to plant), ORYSA (rate 60): 0 | damage to plant (100=total damage to plant; 0=no damage to plant), ORYSA (rate 130): 0 | damage to plant (100=total damage to plant; 0=no damage to plant), ORYSA (rate 250): 0 | damage to plant (100=total damage to plant; 0=no damage to plant), ORYSA (rate 500): 0 | damage to plant (100=total damage to plant; 0=no damage to plant), PANMI (rate 15): 0 | damage to plant (100=total damage to plant; 0=no damage to plant), PANMI (rate 30): 0 | damage to plant (100=total damage to plant; 0=no damage to plant), PANMI (rate 60): 0 | damage to plant (100=total damage to plant; 0=no damage to plant), PANMI (rate 130): 0 | damage to plant (100=total damage to plant; 0=no damage to plant), PANMI (rate 250): 0 | damage to plant (100=total damage to plant; 0=no damage to plant), PANMI (rate 500): 0 | damage to plant (100=total damage to plant; 0=no damage to plant), SETFA (rate 15): 0 | damage to plant (100=total damage to plant; 0=no damage to plant), SETFA (rate 30): 80 | damage to plant (100=total damage to plant; 0=no damage to plant), SETFA (rate 60): 90 | damage to plant (100=total damage to plant; 0=no damage to plant), SETFA (rate 130): 90 | damage to plant (100=total damage to plant; 0=no damage to plant), SETFA (rate 250): 90 | damage to plant (100=total damage to plant; 0=no damage to plant), SETFA (rate 500): 90 | damage to plant (100=total damage to plant; 0=no damage to plant), SORVU (rate 15): 0 | damage to plant (100=total damage to plant; 0=no damage to plant), SORVU (rate 30): 0 | damage to plant (100=total damage to plant; 0=no damage to plant), SORVU (rate 60): 0 | damage to plant (100=total damage to plant; 0=no damage to plant), SORVU (rate 130): 0 | damage to plant (100=total damage to plant; 0=no damage to plant), SORVU (rate 250): 0

— US20220281848A1, “PYRAZOLE-SUBSTITUTED PYRROLIDINONES AS HERBICIDES” (FMC Corporation, priority 2019, published 2022)
